Source: patent US20220047507A1, “MELFLUFEN DOSAGE REGIMENS FOR CANCER” (ONCOPEPTIDES AB, priority 2015, published 2022)
Values joined by “and” are separate entries in the source; they are usually repeats but may differ in a detail not shown here. Identical values can stand only once. Like-named read-outs stand apart in the source and are kept apart here.

Legend:
[1] = system: MM cell lines resistant to dexamethasone, bortezomib and melphalan; conditions: in vitro; cited from earlier work
clinical = conditions: human, in vivo, iv; for AUC(0-t): AUC0-4; for AUC(0-inf): AUCinf
[2] = system: relapsed-refractory multiple myeloma (RRMM) patients; test: Efficacy in patients with RRMM, Example 2b, time point (bi); format: in vivo, human
Protocol: Example 2: An open label single arm extension on the dose of 40 mg over 30 minutes of Example 1. Intravenous melflufen was administered over 30 minutes on Day 1 of a 21-day cycle or 28-day cycle (in combination with 40 mg dexamethasone (oral or intravenous) treatment on Days 1, 8 and 15) for at least 2 cycles, and up to the stated number of cycles. The cycle length was extended during the Example 2 Clinical Trial from 21 to 28 days per a protocol amendment to allow for a better recovery of neutrophils and thrombocytes before a new cycle is initiated.
Example 2a results are from a data cut-off of time point (a). Example 2b results are from a data cut-off of time point (bi) for the efficacy data, which was approximately 12 months after time point (a); and from a data cut-off of time point (bii) for the safety data, which was approximately 10 months after time point (a).
By the data cut-off point (bi), […] (the 40 mg dosage excludes the mass of the salt component) administered over 30 minutes every 3 weeks (21 days) in combination with weekly dexamethasone (day 1, 8 and 15) or every 4 weeks (28 days) in combination with weekly dexamethasone (day 1, 8, 15 and 22).
[…] 10 patients were not evaluable for efficacy evaluation due to rapid early progression (8), or early termination due to adverse events (2).

[3] = human, in vivo, iv
[4] = system: relapsed-refractory multiple myeloma (RRMM) patients; test: Efficacy in patients with RRMM, Example 2a; format: in vivo, human; conditions: Evaluable ≥ 1 cycle, n 35
[5] = system: relapsed-refractory multiple myeloma (RRMM) patients; test: Safety in patients with RRMM, Example 2b, time point (bii); format: in vivo, human; conditions: of the 57 patients in the ongoing melflufen study
[6] = system: different human tumors, including MM; conditions: at seemingly comparable toxicity; cited from earlier work
[7] = Evaluable ≥ 2 cycles, n 30, listed as Melflufen
[8] = Pomalidomide refractory, Example 2b, efficacy evaluable N = 29
[9] = Pomalidomide refractory, Example 2b, treated patients N = 39
[10] = Triple refractory (2 PI/ImiD + 1 ImiD/PI), Example 2b, treated patients N = 39
[11] = refractory status Alkylator, Example 2b, treated patients N = 39
[12] = refractory status Cyclophosphamide, Example 2b, efficacy evaluable N = 29
[13] = refractory status Cyclophosphamide, Example 2b, treated patients N = 39
[14] = refractory status High dose melphalan, Example 2b, efficacy evaluable N = 29
[15] = refractory status High dose melphalan, Example 2b, treated patients N = 39
[16] = refractory status IMiD, Example 2b, treated patients N = 39
[17] = refractory status Low dose melphalan, Example 2b, efficacy evaluable N = 29
[18] = refractory status Low dose melphalan, Example 2b, treated patients N = 39
[19] = refractory status None, Example 2b, efficacy evaluable N = 29
[20] = refractory status None, Example 2b, treated patients N = 39
[21] = refractory status PI + IMiD + Alkylator, Example 2b, efficacy evaluable N = 29
[22] = refractory status PI + IMiD + Alkylator, Example 2b, treated patients N = 39
[23] = refractory status PI + IMiD, Example 2b, treated patients N = 39
[24] = refractory status PI, Example 2b, treated patients N = 39

In the case of `CCOC(=O)[C@H](Cc1ccc(F)cc1)NC(=O)[C@@H](N)Cc1ccc(N(CCCl)CCCl)cc1.Cl` [melflufen, L-Melphalanyl-4-fluoro-L-phenylalanine ethyl ester], the “cytotoxic activities in resistant MM cell lines” value [1] is given as “concentrations similar to those observed in the parenteral, non-resistant cell lines”, the AUC(0-t) (clinical; 15 mg) is given as 13.5 ng·h/mL and the AUC(0-inf) (clinical; 15 mg) is given as 16.3 ng·h/mL. It also gave a Cmax (clinical; 15 mg) of 39 ng/mL, a half-life (clinical; 15 mg, T1/2) of 13 min and a tmax (clinical; 15 mg) of 15 min. The AUC(0-t) (clinical; 25 mg) was 40.8 ng·h/mL, the AUC(0-inf) (clinical; 25 mg) was 40.8 ng·h/mL and the Cmax (clinical; 25 mg) was 102 ng/mL. It also gave a half-life (clinical; 25 mg, T1/2) of 4.6 min, a tmax (clinical; 25 mg) of 12 min and an AUC(0-t) (clinical; 40 mg) of 89.3 ng·h/mL. The AUC(0-inf) (clinical; 40 mg) was 89.3 ng·h/mL, the Cmax (clinical; 40 mg) was 222 ng/mL and the half-life (clinical; 40 mg, T1/2) was 1.1 min. It also gave a tmax (clinical; 40 mg) of 15 min, an AUC(0-t) (clinical; 55 mg) of 102 ng·h/mL and an AUC(0-inf) (clinical; 55 mg) of 102 ng·h/mL. The Cmax (clinical; 55 mg) was 245 ng/mL, the half-life (clinical; 55 mg, T1/2) was 2.7 min and the tmax (clinical; 55 mg) was 25 min. For the same compound, the half-life (clinical; half-life of melflufen concentrations after end of infusion) was 3 to 5 min, the “CRR (≥MR)” value ([2]; Antibody refractory, Example 2b, efficacy evaluable N = 29) was “(50)+ %” and the “CRR (≥MR)” value ([2]; Antibody refractory, Example 2b, treated patients N = 39) was “(33) %”. For the same compound, the “Clinical Benefit Rate (CBR)” value ([2]; Evaluable ≥ 1 cycle, n 40) was 50%, the “Minimal Response (MR), patients” value ([2]; Evaluable ≥ 1 cycle, n 40) was 8 and the “Overall Response Rate (ORR)” value ([2]; Evaluable ≥ 1 cycle, n 40) was 30%. For the same compound, the “Positive Response (PR), patients” value ([2]; Evaluable ≥ 1 cycle, n 40) was 9, the “Progressive Disease (PD), patients” value ([2]; Evaluable ≥ 1 cycle, n 40) was 9 and the “Stable Disease (SD), patients” value ([2]; Evaluable ≥ 1 cycle, n 40) was 11. The “Very Good Positive Response (PR), patients” value (from here on “Very Good Positive Response”) ([2]; Evaluable ≥ 1 cycle, n 40) was 3, the “Clinical Benefit Rate (CBR)” value ([2]; Evaluable ≥ 2 cycles, n 30) was 56% and 63% and the “Overall Response Rate (ORR)” value ([2]; Evaluable ≥ 2 cycles, n 30) was 41% and 40%. For the same compound, the “Positive Response (PR), patients” value ([2]; Evaluable ≥ 2 cycles, n 30) was 9, the “Progressive Disease (PD), patients” value ([2]; Evaluable ≥ 2 cycles, n 30) was 1 and the “Stable Disease (SD), patients” value ([2]; Evaluable ≥ 2 cycles, n 30) was 10. The “Very Good Positive Response” value ([2]; Evaluable ≥ 2 cycles, n 30, 40 mg over 30 min + dexamethasone) was 2, the “Very Good Positive Response” value ([2]; Evaluable ≥ 2 cycles, n 30, 40 mg over 30 min + dexamethasone, listed as Melflufen) was 3 and the “Clinical Benefit Rate (CBR)” value [2, 7] was 63%. For the same compound, the “Minimal Response (MR), patients” value [2, 7] was 7, the “Overall Response Rate (ORR)” value [2, 7] was 40% and the “median duration of response (DOR)” value ([2]; Example 2b, 11 events in 12 responding patients) was 7.7 months. The “median progression free survival (PFS)” value ([2]; Example 2b, ITT-population (n=40)) was 4.3 months, the “median progression free survival (PFS)” value ([2]; Example 2b, PP-population (efficacy evaluable, n=30)) was 7.9 months and the “increase in PFS compared to pomalidomide+dexamethasone and carfilzomib” value ([2]; Example 2b, efficacy evaluable population) was “around 4 months”. For the same compound, the “CRR (≥MR)” value [2, 8] was “(55) %”, the “ORR (≥PR)” value [2, 8] was “(36) %” and the “CRR (≥MR)” value [2, 9] was “(44) %”. For the same compound, the “ORR (≥PR)” value [2, 9] was “(25) %”, the “CRR (≥MR)” value ([2]; Triple refractory (2 PI/ImiD + 1 ImiD/PI), Example 2b, efficacy evaluable N = 29) was “(70) %” and the “CRR (≥MR)” value [2, 10] was “(44) %”. The “ORR (≥PR)” value [2, 10] was “(25) %”, the “best response of minimal response (MR) or better, n patients” value ([2]; of 30 evaluable) was 15 and 19 and the “partial response (PR) or better, n patients” value ([2]; of 30 evaluable) was 12. For the same compound, the “best response of PR or better, n patients” value ([2]; of the 8 patients refractory to an alkylator as their last line of treatment) was 5, the “CRR (≥MR)” value ([2]; refractory status Alkylator, Example 2b, efficacy evaluable N = 29) was “(73) %” and the “CRR (≥MR)” value [2, 11] was “(55) %”. The “ORR (≥PR)” value [2, 11] was “(36) %”, the “CRR (≥MR)” value [2, 12] was “(80) %” and the “ORR (≥PR)” value [2, 12] was “(60) %”. The “CRR (≥MR)” value [2, 13] was “(53) %”, the “ORR (≥PR)” value [2, 13] was “(40) %” and the “CRR (≥MR)” value [2, 14] was “(100) %”. For the same compound, the “ORR (≥PR)” value [2, 14] was “(67) %”, the “CRR (≥MR)” value [2, 15] was “(100) %” and the “ORR (≥PR)” value [2, 15] was “(33) %”. The “CRR (≥MR)” value ([2]; refractory status IMiD, Example 2b, efficacy evaluable N = 29) was “(63) %”, the “CRR (≥MR)” value [2, 16] was “(47) %” and the “ORR (≥PR)” value [2, 16] was “(28) %”. The “CRR (≥MR)” value [2, 17] was “(60) %”, the “ORR (≥PR)” value [2, 17] was “(40) %” and the “CRR (≥MR)” value [2, 18] was “(67) %”. For the same compound, the “ORR (≥PR)” value [2, 18] was “(33) %”, the “CRR (≥MR)” value [2, 19] was “(100) %” and the “ORR (≥PR)” value [2, 19] was “(100) %”. For the same compound, the “CRR (≥MR)” value [2, 20] was “(100) %”, the “ORR (≥PR)” value [2, 20] was “(100) %” and the “CRR (≥MR)” value [2, 21] was “(44) %”. For the same compound, the “ORR (≥PR)” value [2, 21] was “(33) %”, the “CRR (≥MR)” value [2, 22] was “(40) %” and the “ORR (≥PR)” value [2, 22] was “(20) %”. The “CRR (≥MR)” value ([2]; refractory status PI + IMiD, Example 2b, efficacy evaluable N = 29) was “(59) %”, the “CRR (≥MR)” value [2, 23] was “(46) %” and the “ORR (≥PR)” value [2, 23] was “(25) %”. The “CRR (≥MR)” value ([2]; refractory status PI, Example 2b, efficacy evaluable N = 29) was “(63) %”, the “CRR (≥MR)” value [2, 24] was “(50) %” and the “ORR (≥PR)” value [2, 24] was “(25) %”. For the same compound, the “time after end of infusion within which melflufen is no longer measurable” value [3] was ≤ 15 min, the tmax ([3]; 25 mg) was 15 min and the tmax ([3]; 40 mg) was 25 min. For the same compound, the “Positive Response (PR), patients” value [4] was 9, the “Progressive Disease (PD), patients” value [4] was 8 and the “fatal events while on treatment or within 30 days of last dose” value [5] was 11%. For the same compound, the “antitumor activity over equimolar dosage of melphalan” value [6] was “superior antitumor activity”.
